Measurements taken from paper PMC4603724 (ACS Medicinal Chemistry Letters, 2015).

Target: protein disulfide isomerase (PDI) (Homo sapiens, UniProt P07237)
Assay: 1H-15N HSQC NMR chemical shift perturbation
Assay type: binding

Chain of protein disulfide isomerase (PDI) (P07237 18-137): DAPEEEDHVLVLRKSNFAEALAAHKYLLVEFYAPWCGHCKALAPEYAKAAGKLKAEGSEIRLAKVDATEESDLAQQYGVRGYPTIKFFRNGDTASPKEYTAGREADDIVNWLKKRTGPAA

Question: O=C1C=C2C=C[C@@H]3C[C@@]2(O1)[C@H]1CCCCN31 [IBS141, securinine] was tested. Which Kd did it give?
Answer: 758 ± 129 µM
